Assay results from ChEMBL document CHEMBL1150480, “Photoreactive CMP-sialic acids as substrates for 2,6-sialyltransferase” (Bioorg Med Chem Lett, 1995).
One block for each molecule: values may come before it.

Tests used:
[1] = Evaluation of ratio of Michaelis-Menten constant to that of kinetic constant against 2,6-sialyltransferase in presence of compound
[2] = target: T1, Beta-galactoside alpha-2,6-sialyltransferase 1 (Rattus norvegicus) (UniProt P13721); test: Evaluation of kinetic constant for rat liver GaI-beta-1,4GIcNAc alpha2,6-sialyltransferase in presence of compound
T1 sequence (whole entry): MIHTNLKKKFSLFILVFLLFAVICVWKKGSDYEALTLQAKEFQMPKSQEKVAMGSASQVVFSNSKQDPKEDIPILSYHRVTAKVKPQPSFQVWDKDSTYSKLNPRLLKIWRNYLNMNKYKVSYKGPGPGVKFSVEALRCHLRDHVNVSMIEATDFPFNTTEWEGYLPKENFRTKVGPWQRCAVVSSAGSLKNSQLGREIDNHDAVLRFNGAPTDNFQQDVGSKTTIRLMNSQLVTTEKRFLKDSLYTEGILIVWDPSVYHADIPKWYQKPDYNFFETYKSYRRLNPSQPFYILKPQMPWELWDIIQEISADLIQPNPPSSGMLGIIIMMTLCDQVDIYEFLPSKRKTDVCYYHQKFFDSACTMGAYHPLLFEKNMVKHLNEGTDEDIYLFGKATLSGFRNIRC

[3] = compound: CC(=O)NC1C(O)CC(OP(=O)(O)OC[C@H]2OC(n3ccc(N)nc3=O)[C@H](O)[C@@H]2O)(C(=O)O)OC1[C@H](O)[C@H](O)CNC(=O)c1ccc(N=[N+]=[N-])cc1; test: (§1) Evaluation of Michaelis-Menten constant of rat liver GaI-beta-1,4GIcNAc alpha2,6-sialyltransferase in presence of compound
[4] = compound: CC(=O)NC1C(O)CC(OP(=O)(O)OC[C@H]2OC(n3ccc(N)nc3=O)[C@H](O)[C@@H]2O)(C(=O)O)OC1[C@H](O)[C@H](O)CNC(=O)c1ccc(N=[N+]=[N-])cc1O; test: as §1
[5] = compound: NCC(=O)NC1C(O)CC(OP(=O)(O)OC[C@H]2OC(n3ccc(N)nc3=O)[C@H](O)[C@@H]2O)(C(=O)O)OC1[C@H](O)C(O)CO; test: as §1
[6] = compound: CC(=O)NC1C(O)CC(OP(=O)(O)OC[C@H]2OC(n3ccc(N)nc3=O)[C@H](O)[C@@H]2O)(C(=O)O)OC1[C@H](O)[C@H](O)CNC(=O)c1ccc(C(=O)c2ccccc2)cc1; test: as §1
[7] = compound: [N-]=[N+]=Nc1ccc(C(=O)NCC(=O)NC2C(O)CC(OP(=O)(O)OC[C@H]3OC(n4ccc(N)nc4=O)[C@H](O)[C@@H]3O)(C(=O)O)OC2[C@H](O)[C@H](O)CO)cc1; test: as §1

Molecule: CC(=O)NC1C(O)CC(OP(=O)(O)OC[C@H]2OC(n3ccc(N)nc3=O)[C@H](O)[C@@H]2O)(C(=O)O)OC1[C@H](O)[C@H](O)CNC(=O)c1ccc(N=[N+]=[N-])cc1O (stereo not given in full)
- Ratio [1]: 13.8
- Relative Vmax [2]: 1.1

Molecule: CC(=O)NC1C(O)CC(OP(=O)(O)OC[C@H]2OC(n3ccc(N)nc3=O)[C@H](O)[C@@H]2O)(C(=O)O)OC1[C@H](O)[C@H](O)CNC(=O)c1ccc(C(=O)c2ccccc2)cc1 (stereo not given in full)
- Ratio [1]: 11.8
- Relative Vmax [2]: 0.8

B1: Beta-galactoside alpha-2,6-sialyltransferase 1 (Rattus norvegicus), P13721 (protein)
chain: T1 sequence (whole entry)
- Km [3]: 66 µM
- Km [4]: 80 µM
- Km [5]: 45 µM
- Km [6]: 68 µM
- Km [7]: 161 µM

Results, then the molecule that gave them:

- Ratio [1]: 3.1
- Relative Vmax [2]: 0.5
Molecule: [N-]=[N+]=Nc1ccc(C(=O)NCC(=O)NC2C(O)CC(OP(=O)(O)OC[C@H]3OC(n4ccc(N)nc4=O)[C@H](O)[C@@H]3O)(C(=O)O)OC2[C@H](O)[C@H](O)CO)cc1 (stereo not given in full)

- Ratio [1]: 13.6
- Relative Vmax [2]: 0.9
Molecule: CC(=O)NC1C(O)CC(OP(=O)(O)OC[C@H]2OC(n3ccc(N)nc3=O)[C@H](O)[C@@H]2O)(C(=O)O)OC1[C@H](O)[C@H](O)CNC(=O)c1ccc(N=[N+]=[N-])cc1 (stereo not given in full)

- Ratio [1]: 22.2
- Relative Vmax [2]: 1
Molecule: NCC(=O)NC1C(O)CC(OP(=O)(O)OC[C@H]2OC(n3ccc(N)nc3=O)[C@H](O)[C@@H]2O)(C(=O)O)OC1[C@H](O)C(O)CO (stereo not given in full)
